Experimental findings from patent publication US20240139167A1, “LYSOSOME-ASSOCIATED MEMBRANE PROTEIN TARGETING COMPOUNDS AND USES THEREOF” (HADASIT MEDICAL RESEARCH SERVICES AND DEVELOPMENT LTD., priority 2021, published 2024) are described below.

Series [1] in a line: Safety assessment in wild type mice, 3 months. It is filed as in vivo. Here is the method: FIG. 10 includes a graph of the body weights of wild type C57B16J mice treated with Compound 1 for 3 months. Mice were injected twice a week with 150 μL of Compound 1 at 250 mg/kg in 5% DMSO, or an equal volume of 5% DMSO (V, vehicle) control. Injections were intravenous for the first month and then subcutaneously for the following 2 months;
FIG. 11 includes images of brain, liver, skeletal muscle, and heart tissue slices of wild type C57B16J mice treated for 3 months with Compound 1. The slices were stained by H&E staining in order to visualize lesions. No lesions were apparent in either treatment. Scale bars, 500 μm (brain), 100 μm (liver), 200 µm (muscle), 100 μm (heart).
The inventors have tested Compound 1 (FIG. 1A) for its capacity to correct the deficient motor phenotypes and short lifespan in the APBD mouse model Gbe^ys/ys. Compound 1 is one of 19 PG reducing HTS hits previously discovered by the inventors. It was selected by in silico ADMET (Absorption, Distribution, Metabolism, Excretion, and Toxicity) tests run on these hits to predict which of them should be safe and pharmacokinetically and pharmacodynamically preferred and is therefore worth further pursuit (FIG. 8, compound “A”). […] Following 1 h and 24 h treatments, mice were also examined for abnormal spontaneous behavior, such as immobility, excessive running, stereotyped movements, and abnormal posture (Irwin tests).

The next series concerns Gbe^ys/ys mice. Nature of the series: Survival, weight and motor phenotypes in APBD mouse model. It is filed as in vivo. The text has this: Pictures of 7-months old Gbe^ys/ys mice treated with vehicle (1L), or Compound 1 (1M) for 3 months prior to photography.
The presented experiments combine in vivo, ex vivo and in vitro studies on the therapeutic potential of the newly discovered compound Compound 1 for treating APBD. In the in vivo section, the inventors have tested Compound 1 for its capacity to correct disease phenotypes in Gbe^ys/ys female mice. Two arms, 5% DMSO vehicle and Compound 1, of initially n=7-9 animals each were used. […] Additional open field, gait, and extension reflex tests (FIGS. 1E-1H) also included a C57BL/6 wild type control arm of n=9 animals. Animals were excluded from the experiment if weight was reduced by >10% between sequential weightings or by >20% from initiation. […] 150 μL of 250 mg/kg Compound 1 in 5% DMSO were injected twice a week. Vehicle control was 5% DMSO. Injection was intravenous (IV) for the first month, followed by subcutaneous (SC) injection due to lack of injection space and scaring in animal tails. The inventors initiated the injections either at the age of 4 months, two months prior to disease onset, assuming a preferred prophylactic effect, or at the 6 months age of onset for comparison. Treatment was continued until the age of 10 months. The effect of Compound 1 on various motor parameters was tested approximately every two weeks. At the end of these experiments, some of the mice were sacrificed by cervical dislocation and tissues from n=2 wild type, n=7 Gbe^ys/ys vehicle-treated, and n=9 Compound 1-treated mice were collected, sectioned, fixed, and stained for diastase-resistant PG by PAS (FIGS. 2A-2C). Tissue glycogen was determined biochemically as described. In addition, Compound 1 pharmacokinetic profile was determined by LC-MS/MS in serum and tissues derived from n=3 mice/time point. Experimenters were blinded to treatment allocation.
In FIGS. 1A-1M the significance of overall trends was tested by Two-way ANOVA with repeated measures. […] The Bonferroni test was used to compare between Compound 1 and vehicle in a way which corrects for the multiple comparisons and is therefore very robust (since the threshold for determining significance at each time point is reduced in a manner inversely proportional to the number of comparisons). […] In FIGS. 4D and 6E the inventors used One Way ANOVA with Sidak's post-hoc correction for multiple comparisons. Other statistical tests used were Student t-tests.

For the molecule `COCCN(Cc1sccc1C)C(=O)c1cc(C)nc(O)c1` [Compound 1], the “animals' weight gain over time” value in series [1] (3 months at 250 mg/kg in 5% DMSO) was “did not influence”. Also, the “histopathological damage or lesions in brain, liver, skeletal muscle, and heart” value in series [1] (after 3 months exposure) is on record as “did not produce any histopathological damage or lesions”. The “animal weight over time” value with Gbe^ys/ys mice (250 mg/kg twice a week from age 4 months) is on record as “mitigated the decline in animal weight over time”. In addition, the animal survival result in the series with Gbe^ys/ys mice (250 mg/kg twice a week from age 4 months, vs 5% DMSO vehicle) is listed as “significantly improved animal survival”. In addition, the “ameliorating effect on open field, weight and overall extension reflex” value in the series on Gbe^ys/ys mice (administered after disease onset at the age 6 months) is given as “ameliorating effect did not take place”. Besides, the Extension reflex entry with Gbe^ys/ys mice (administered at onset (6 months), at the age of 9 months) is listed as “only parameter improved by the compound from the advanced stage of the disease”. In addition, the open field performance entry in the series on Gbe^ys/ys mice (from 8 months, 134 days post injection) is listed as “improved open field performance”. The “gait (stride length)” value with Gbe^ys/ys mice (mouse age of 9 months) is on record as “improved gait, or increased stride length”. In addition, in the series with Gbe^ys/ys mice (throughout the study period, p<0.05), the overall extension reflex result is given as “significantly improved”.
